From ChEMBL document CHEMBL1909046, “DrugMatrix in vitro pharmacology data” come the findings set out here.

The nature of assay [1]: DRUGMATRIX: Sodium/nucleoside co-transporter radioligand binding (ligand: nitrobenzylthioinosine). In kind it is cell membranes, Cavia porcellus, Dunkin-Hartley, Cerebral cortex, Membrane. As to conditions: Not Active = under 50% inhibition at 10 µM.
For assay [2], the target named is Beta-1 adrenergic receptor (Homo sapiens, UniProt P08588). As to the kind of experiment: DRUGMATRIX: Adrenergic beta1 radioligand binding (ligand: [125I] Cyanopindolol). Conditions: cho-k1; Not Active = under 50% inhibition at 10 µM. In kind it is cell membranes, CHO-K1, Membrane.
Assay [3] concerns the target Sodium-dependent noradrenaline transporter (Homo sapiens, UniProt P23975). In words: DRUGMATRIX: Norepinephrine Transporter radioligand binding (ligand: [125I] RTI-55). In kind it is cell membranes, MDCK, Membrane. As to conditions: mdck; Not Active = under 50% inhibition at 10 µM.
The nature of assay [4]: DRUGMATRIX: ATPase, Na+/K+ enzyme inhibition (substrate: ATP). The assay is classed as tissue-based, Sus scrofa, Heart. As to conditions: Not Active = under 50% inhibition at 10 µM.
Assay [5] in a line: DRUGMATRIX: Calcium Channel Type L, Dihydropyridine radioligand binding (ligand: [3H] Nitrendipine). In kind it is cell membranes, Rattus norvegicus, Wistar, Cerebral cortex, Membrane. As to conditions: Not Active = under 50% inhibition at 10 µM.
Assay [6] can be described thus: DRUGMATRIX: Glutamate, AMPA radioligand binding (ligand: [3H] AMPA). In kind it is cell membranes, Rattus norvegicus, Wistar, Cerebral cortex, Membrane. As to conditions: Not Active = under 50% inhibition at 10 µM.
The next assay deals with Mu-type opioid receptor (Homo sapiens, UniProt P35372). In words: DRUGMATRIX: Opiate mu (OP3, MOP) radioligand binding (ligand: [3H] Diprenorphine). Conditions: Not Active = under 50% inhibition at 10 µM. The assay is classed as cell membranes, CHO-K1, Membrane.
Sequence of Mu-type opioid receptor (P35372 whole entry): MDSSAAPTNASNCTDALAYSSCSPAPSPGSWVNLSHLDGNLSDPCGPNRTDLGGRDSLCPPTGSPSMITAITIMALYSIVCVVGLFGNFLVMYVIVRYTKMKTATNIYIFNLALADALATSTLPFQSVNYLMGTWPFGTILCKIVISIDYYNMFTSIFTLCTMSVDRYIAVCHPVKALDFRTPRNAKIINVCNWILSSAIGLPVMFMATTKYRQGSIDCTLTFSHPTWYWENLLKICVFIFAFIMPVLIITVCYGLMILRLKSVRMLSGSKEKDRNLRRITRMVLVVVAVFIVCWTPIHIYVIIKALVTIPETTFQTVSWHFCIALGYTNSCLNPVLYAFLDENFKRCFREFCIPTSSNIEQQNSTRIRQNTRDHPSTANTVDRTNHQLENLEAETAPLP

Sequence of Beta-1 adrenergic receptor (P08588 whole entry): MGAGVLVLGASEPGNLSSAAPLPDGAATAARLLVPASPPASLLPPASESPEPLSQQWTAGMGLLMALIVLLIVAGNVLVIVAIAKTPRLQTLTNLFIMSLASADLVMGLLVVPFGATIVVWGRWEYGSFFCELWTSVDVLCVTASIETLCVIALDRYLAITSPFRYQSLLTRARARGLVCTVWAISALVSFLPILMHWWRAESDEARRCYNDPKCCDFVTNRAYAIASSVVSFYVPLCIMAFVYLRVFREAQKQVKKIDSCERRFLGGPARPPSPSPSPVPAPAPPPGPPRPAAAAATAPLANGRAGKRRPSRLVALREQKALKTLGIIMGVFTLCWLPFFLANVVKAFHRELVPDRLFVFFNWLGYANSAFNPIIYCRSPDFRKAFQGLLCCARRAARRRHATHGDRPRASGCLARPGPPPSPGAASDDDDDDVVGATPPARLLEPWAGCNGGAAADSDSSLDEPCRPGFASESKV
Sequence of Sodium-dependent noradrenaline transporter (P23975 whole entry): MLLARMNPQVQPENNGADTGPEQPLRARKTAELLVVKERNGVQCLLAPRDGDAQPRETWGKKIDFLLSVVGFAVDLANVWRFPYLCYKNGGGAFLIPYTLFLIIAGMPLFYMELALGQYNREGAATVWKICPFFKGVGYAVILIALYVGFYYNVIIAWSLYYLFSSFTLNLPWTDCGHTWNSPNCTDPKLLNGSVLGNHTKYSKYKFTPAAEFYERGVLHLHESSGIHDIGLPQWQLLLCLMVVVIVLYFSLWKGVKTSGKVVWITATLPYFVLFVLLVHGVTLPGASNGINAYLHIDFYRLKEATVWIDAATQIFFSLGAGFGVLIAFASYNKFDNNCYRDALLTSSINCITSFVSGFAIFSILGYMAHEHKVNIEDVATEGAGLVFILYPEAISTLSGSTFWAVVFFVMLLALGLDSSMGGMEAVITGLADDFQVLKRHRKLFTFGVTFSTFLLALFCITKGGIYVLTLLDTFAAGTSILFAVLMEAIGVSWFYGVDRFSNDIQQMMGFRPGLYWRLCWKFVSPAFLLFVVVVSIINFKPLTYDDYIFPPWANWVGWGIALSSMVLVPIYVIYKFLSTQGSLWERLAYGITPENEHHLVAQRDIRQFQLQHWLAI

Broadly, the IC50 is the concentration needed to halve the response being measured. Usually Ki stands for a dissociation constant, usually derived from enzyme kinetics or from competition with a known ligand. Consider `CCCCC(=O)N(Cc1ccc(-c2ccccc2-c2nnn[nH]2)cc1)[C@H](C(=O)O)C(C)C`, for which the IC50 entry in assay [1], in assay [2], in assay [3], in assay [4], in assay [5] and in assay [6] was “Not Active” in each case. Moreover, at Mu-type opioid receptor (cho-k1), the IC50 result is “Not Active”. Moreover, the Ki entry in assay [1], in assay [4], in assay [5] and in assay [6] was “Not Active” throughout.
In the case of `O=C(O)COc1ccc(C(=O)c2cccs2)c(Cl)c1Cl`, the concentration for half-maximal inhibition (IC50) entry in assay [1], in assay [2], in assay [3], in assay [4], in assay [5] and in assay [6] was “Not Active” each time. Also, at Mu-type opioid receptor (cho-k1), the IC50 result was “Not Active”. Moreover, the Ki entry in assay [1], in assay [4], in assay [5] and in assay [6] was “Not Active” throughout.
`CN1[C@@H]2CC[C@H]1C[C@@H](OC(c1ccccc1)c1ccccc1)C2` [BENZTROPINE]: on Mu-type opioid receptor (cho-k1), the IC50 result is “Not Active”.
For `C[C@@](Cc1ccc(O)c(O)c1)(NN)C(=O)O.O` [CARBIDOPA], the IC50 result in assay [1], in assay [2], in assay [3], in assay [4], in assay [5] and in assay [6] was “Not Active” throughout. Besides, at Mu-type opioid receptor (cho-k1), the IC50 result was “Not Active”. The Ki entry in assay [1], in assay [4], in assay [5] and in assay [6] was “Not Active” throughout.
Regarding `CN1CCN(C2=Nc3cc(Cl)ccc3Nc3ccccc32)CC1` [CLOZAPINE], the IC50 entry (in assay [2]; on Mu-type opioid receptor (cho-k1)) was “Not Active” each time.
Regarding `CC(C)NC[C@@H](O)COc1cccc2ccccc12` [DEXPROPRANOLOL], the IC50 entry at Mu-type opioid receptor (cho-k1) was “Not Active”.
With `CC(C)NC[C@H](O)COc1cccc2ccccc12` [LEVOPROPRANOLOL], the IC50 result on Mu-type opioid receptor (cho-k1) is on record as “Not Active”.
Consider `O=C(O)CCCCC1CCSS1` (stereo not drawn) [LIPOIC ACID, ALPHA], for which the 50% inhibitory concentration (IC50) entry in assay [1], in assay [2], in assay [3], in assay [4], in assay [5] and in assay [6] was “Not Active” in each case. Also, the IC50 entry at Mu-type opioid receptor (cho-k1) is listed as “Not Active”. In addition, the Ki entry in assay [1], in assay [4], in assay [5] and in assay [6] was “Not Active” each time.
On to `Clc1ccc(COC(Cn2ccnc2)c2ccc(Cl)cc2Cl)c(Cl)c1` (centres undefined) [MICONAZOLE], for which the Ki on Mu-type opioid receptor was 2460 nM. The IC50 on Mu-type opioid receptor (read-out: IC50) turned out to be 6060 nM.
With `Oc1ccc2c3c1O[C@H]1[C@@H](O)CC[C@@]4(O)[C@@H](C2)N(CC2CCC2)CC[C@]314` [NALBUPHINE], the IC50 entry in assay [2] and in assay [3] was “Not Active” in each case.
With `C[C@]12C=CC(=O)C=C1CC[C@@H]1[C@@H]2C(=O)C[C@@]2(C)[C@H]1CC[C@]2(O)C(=O)CO` [PREDNISONE], the IC50 was 4950 nM in assay [1] (read-out: IC50); “Not Active” in assay [2]; “Not Active” in assay [3]; “Not Active” in assay [4]; “Not Active” in assay [5]; “Not Active” in assay [6]. In addition, the IC50 result at Mu-type opioid receptor (cho-k1) is recorded as “Not Active”. Moreover, the Ki is 1690 nM in assay [1] (read-out: Ki), “Not Active” in assay [4], “Not Active” in assay [5] and “Not Active” in assay [6].
Consider `OCCOCCN1CCN(C2=Nc3ccccc3Sc3ccccc32)CC1` [QUETIAPINE], for which the concentration for half-maximal inhibition (IC50) entry (in assay [2]; in assay [3]; on Mu-type opioid receptor (cho-k1)) was “Not Active” each time.
As to `COC(=O)[C@H]1[C@H]2C[C@@H]3c4[nH]c5cc(OC)ccc5c4CCN3C[C@H]2C[C@@H](OC(=O)c2cc(OC)c(OC)c(OC)c2)[C@@H]1OC` [RESERPINE], the IC50 result is “Not Active” in assay [1]; “Not Active” in assay [2]; “Not Active” in assay [3]; “Not Active” in assay [4]; 821 nM in assay [5] (read-out: IC50); “Not Active” in assay [6]. Also, on Mu-type opioid receptor (read-out: IC50), the IC50 stood at 4150 nM. Also, the Ki entry is “Not Active” in assay [1]; “Not Active” in assay [4]; 528 nM in assay [5] (read-out: Ki); “Not Active” in assay [6]; 1690 nM at Mu-type opioid receptor.
`O=C(O)c1ccccc1O` [SALICYLIC ACID]: the IC50 result in assay [1], in assay [3], in assay [4], in assay [5] and in assay [6] was “Not Active” in each case. In addition, the Ki entry in assay [1], in assay [4], in assay [5] and in assay [6] was “Not Active” throughout.
As for `C[S+]([O-])c1ccc(-c2nc(-c3ccncc3)c(-c3ccc(F)cc3)[nH]2)cc1` (centres undefined) [SB-203580], the half-inhibitory concentration (IC50) result (in assay [2]; in assay [3]; on Mu-type opioid receptor (cho-k1)) was “Not Active” throughout.
Regarding `CC1CCC(NC(=O)N(CCCl)N=O)CC1` (centres undefined) [SEMUSTINE], the IC50 entry in assay [1], in assay [2], in assay [3], in assay [4], in assay [5] and in assay [6] was “Not Active” throughout. Besides, at Mu-type opioid receptor (cho-k1), the IC50 entry is recorded as “Not Active”. Besides, the Ki result in assay [1], in assay [4], in assay [5] and in assay [6] was “Not Active” each time.
Take `O=C1C[C@@H]2OCC=C3CN4CC[C@]56c7ccccc7N1[C@H]5[C@H]2[C@H]3C[C@H]46` [STRYCHNINE]: the IC50 result in assay [1], in assay [3], in assay [4], in assay [5] and in assay [6] was “Not Active” each time. The Ki result in assay [1], in assay [4], in assay [5] and in assay [6] was “Not Active” throughout.
For the compound `CCCCCCCCNC(C)C(O)c1ccc(SC(C)C)cc1` (centres undefined) [SULOCTIDIL], the IC50 result in assay [1] is “Not Active”; in assay [4], “Not Active”; in assay [5] (read-out: IC50), 260 nM; in assay [6], “Not Active”; on Mu-type opioid receptor (cho-k1), “Not Active”. Also, the Ki entry in assay [1] is “Not Active”; in assay [4] it was “Not Active”; in assay [5] (read-out: Ki) it was 167 nM; in assay [6] it was “Not Active”.
In the case of TRANSPLATIN, the IC50 entry in assay [1], in assay [2], in assay [3], in assay [4], in assay [5] and in assay [6] was “Not Active” each time. Besides, the Ki result in assay [1], in assay [2], in assay [3], in assay [4], in assay [5] and in assay [6] was “Not Active” throughout.
For the compound ZIRCONIUM(IV) CHLORIDE, the IC50 result in assay [1], in assay [2], in assay [3], in assay [4], in assay [5] and in assay [6] was “Not Active” each time. Also, the Ki result in assay [1], in assay [2], in assay [3], in assay [4], in assay [5] and in assay [6] was “Not Active” each time.
